The results in this text go back to US10968227B2, “Isoquinoline ether compounds as mGluR4 allosteric potentiators, compositions, and methods of treating neurological dysfunction” (Vanderbilt University, priority 2016, dated 2021).

The target in one data set is 2D6 (Homo sapiens (Human), UniProt P10635). Briefly: CYP 2D6 inhibition. Format: in vitro ADME.
The nature of data set [1]: Rat brain fraction unbound. In kind it is in vitro ADME. The following applies: read-out: Rat Fu Brain.
Data set [2] in a line: Human intrinsic and hepatic clearance. Format: in vitro ADME.
A short description of data set [3]: Rat intrinsic and hepatic clearance. In kind it is in vitro ADME.
The nature of data set [4]: Rat plasma fraction unbound. The following applies: read-out: Rat Fu Plasma. Format: in vitro ADME.
The target in another data set is 3A4 (Homo sapiens (Human), UniProt P08684). Briefly: CYP 3A4 inhibition. Format: in vitro ADME.
Sequence of 3A4 (P08684 whole entry): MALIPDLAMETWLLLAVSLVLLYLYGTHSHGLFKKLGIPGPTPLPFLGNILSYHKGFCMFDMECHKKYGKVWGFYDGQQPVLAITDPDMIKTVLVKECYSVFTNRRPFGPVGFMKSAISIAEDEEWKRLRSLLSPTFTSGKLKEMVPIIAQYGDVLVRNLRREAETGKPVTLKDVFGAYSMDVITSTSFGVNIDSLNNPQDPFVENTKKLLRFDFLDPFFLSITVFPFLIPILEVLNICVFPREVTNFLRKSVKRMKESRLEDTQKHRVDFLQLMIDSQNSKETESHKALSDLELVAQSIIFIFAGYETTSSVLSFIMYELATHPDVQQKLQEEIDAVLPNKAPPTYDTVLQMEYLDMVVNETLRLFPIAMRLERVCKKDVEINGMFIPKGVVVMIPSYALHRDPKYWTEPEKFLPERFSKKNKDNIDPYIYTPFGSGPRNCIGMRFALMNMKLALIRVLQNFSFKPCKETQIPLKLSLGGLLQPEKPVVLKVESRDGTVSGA
A further data set has as its target 1A2 (Homo sapiens (Human), UniProt P05177). Briefly: CYP 1A2 inhibition. Format: in vitro ADME.
The nature of a further data set: Brain-plasma partition. In kind it is in vivo. The following applies: rat; for unbound brain-to-plasma partition coefficient (Kp,uu): unbound brain-plasma ratio, read-out: Brain-Plasma Kp,ω.
A further data set addresses 2C9 (Homo sapiens (Human), UniProt P11712). Briefly: CYP 2C9 inhibition. Format: in vitro ADME.
A short description of data set [5]: Human plasma fraction unbound. In kind it is in vitro ADME. The following applies: read-out: Human Fu Plasma.
Another data set in a line: Rat in vivo clearance. The following applies: read-out: Rat in Vivo CL.
A further data set can be described thus: Kinetic solubility. The following applies: kinetic from dmso stock. Format: physicochemical.

In brackets after ≈: the same amount, converted by molar mass.

Sequence of 2D6 (P10635 whole entry): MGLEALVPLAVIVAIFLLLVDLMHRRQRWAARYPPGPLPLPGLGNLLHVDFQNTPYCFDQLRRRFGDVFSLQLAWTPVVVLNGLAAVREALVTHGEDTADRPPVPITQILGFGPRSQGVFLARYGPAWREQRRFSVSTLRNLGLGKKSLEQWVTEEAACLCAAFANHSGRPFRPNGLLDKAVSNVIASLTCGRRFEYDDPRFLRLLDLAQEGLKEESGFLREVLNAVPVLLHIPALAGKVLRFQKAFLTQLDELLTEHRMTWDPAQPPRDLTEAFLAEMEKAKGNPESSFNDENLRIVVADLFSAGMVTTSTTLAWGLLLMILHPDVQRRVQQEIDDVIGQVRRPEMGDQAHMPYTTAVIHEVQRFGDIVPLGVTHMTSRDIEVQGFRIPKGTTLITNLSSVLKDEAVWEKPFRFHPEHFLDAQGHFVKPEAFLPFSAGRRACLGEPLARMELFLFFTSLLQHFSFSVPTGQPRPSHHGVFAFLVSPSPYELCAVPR
Sequence of 1A2 (P05177 whole entry): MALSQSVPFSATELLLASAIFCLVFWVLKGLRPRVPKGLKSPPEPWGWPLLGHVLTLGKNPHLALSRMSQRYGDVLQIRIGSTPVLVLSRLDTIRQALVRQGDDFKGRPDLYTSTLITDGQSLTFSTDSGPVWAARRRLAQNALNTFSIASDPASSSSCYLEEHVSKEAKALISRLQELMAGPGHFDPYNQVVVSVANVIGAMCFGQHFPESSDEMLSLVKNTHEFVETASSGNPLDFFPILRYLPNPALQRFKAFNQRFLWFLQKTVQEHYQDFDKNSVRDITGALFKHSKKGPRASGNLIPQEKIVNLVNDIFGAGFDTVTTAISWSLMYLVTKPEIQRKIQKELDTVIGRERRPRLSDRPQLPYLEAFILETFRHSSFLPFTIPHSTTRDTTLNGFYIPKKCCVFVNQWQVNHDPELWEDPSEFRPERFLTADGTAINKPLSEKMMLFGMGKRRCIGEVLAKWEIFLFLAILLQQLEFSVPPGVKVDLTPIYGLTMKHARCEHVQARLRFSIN
Sequence of 2C9 (P11712 whole entry): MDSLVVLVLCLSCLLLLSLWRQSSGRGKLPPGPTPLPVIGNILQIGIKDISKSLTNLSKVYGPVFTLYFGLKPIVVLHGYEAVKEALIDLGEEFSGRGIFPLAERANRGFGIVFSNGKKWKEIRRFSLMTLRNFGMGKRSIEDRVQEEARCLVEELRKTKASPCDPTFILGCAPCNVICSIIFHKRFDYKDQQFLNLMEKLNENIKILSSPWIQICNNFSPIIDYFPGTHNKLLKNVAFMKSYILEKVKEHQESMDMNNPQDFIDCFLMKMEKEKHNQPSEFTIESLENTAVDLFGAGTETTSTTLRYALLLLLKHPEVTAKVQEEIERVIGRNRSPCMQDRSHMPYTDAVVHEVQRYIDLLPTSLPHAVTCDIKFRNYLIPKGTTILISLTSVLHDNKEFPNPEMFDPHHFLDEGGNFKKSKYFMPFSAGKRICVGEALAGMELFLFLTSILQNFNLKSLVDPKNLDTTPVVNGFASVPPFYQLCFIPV

The IC50 is the point on the concentration scale where inhibition reaches its midpoint. The CLint scaled is the capacity of the preparation to metabolise the compound, expressed as a volume cleared per time. Read a low CLint scaled as slow turnover. Usually Kp stands for the ratio of the level in a tissue or fluid to that in plasma or blood. For `c1cnc2c(Nc3ccc4c(OC5CCOCC5)nccc4c3)n[nH]c2c1` [Compound 60], the IC50 at 2D6 was determined as 23.5 µM; against 3A4 it was 12.3 µM; against 1A2, 5.68 µM; against 2C9 it was 3.9 µM. The fraction unbound was 0.008 in [1], 0.03 in data set [4] and 0.02 in [5]. In addition, the CLint scaled in data set [2] was 16.1 mL/min/kg; in [3], 94.1 mL/min/kg. Also, in [2], the “Human CLhep” value was 8.79 mL/min/kg. Further, in [3], the “Rat CLhep” value was determined as 40.1 mL/min/kg. This molecule yielded a Kp in the data set “Brain-plasma partition” of 1.44. Moreover, the unbound brain-to-plasma partition coefficient (Kp,uu) in “Brain-plasma partition” turned out to be 0.39. Moreover, in “Rat in vivo clearance”, the clearance was 81.6 mL/min/kg.
For orientation: solubility (kinetic) means solubility judged after dilution from a stock solution rather than from solid. For the molecule `C[C@H]1C[C@H](Oc2nccc3cc(Nc4n[nH]c5cccnc45)ccc23)CO1` [Compound 87], the IC50 was above 30 µM on 2D6, above 30 µM against 3A4, 15.8 µM on 1A2 and 1.85 µM against 2C9. Further, the results for the CLint scaled in data set [2] and in data set [3] were 16 mL/min/kg and 61 mL/min/kg, respectively. The “Human CLhep” value in data set [2] was 9.07 mL/min/kg. In addition, the solubility (kinetic) in the data set “Kinetic solubility” was found to be 0.7 ± 0.4 µM (≈ 0.253 µg/mL). The “Rat CLhep” value in data set [3] is reported as 32.6 mL/min/kg. Moreover, in the data set “Rat in vivo clearance”, the clearance is 39.1 mL/min/kg.
As for `c1cnc2c(Nc3ccc4c(O[C@H]5CCCOC5)nccc4c3)n[nH]c2c1` [Compound 61], the IC50 against 2D6 amounted to 19.7 µM; against 3A4, 4.29 µM; against 1A2, 5.86 µM; at 2C9, 6.04 µM. The fraction unbound in [1] amounted to 0.005; in data set [4], 0.04; in data set [5], 0.028. Further, the figures for the CLint scaled in [2] and in [3] were 44 mL/min/kg and 333 mL/min/kg, respectively. Further, the “Human CLhep” value in [2] is recorded as 14.2 mL/min/kg. The “Rat CLhep” value in [3] is 57.8 mL/min/kg. This molecule had a Kp in the data set “Brain-plasma partition” of 1.83. Besides, in “Brain-plasma partition”, the unbound brain-to-plasma partition coefficient (Kp,uu) is 0.23. Also, the clearance in “Rat in vivo clearance” stood at 61 mL/min/kg.
In the case of `C[C@H]1C[C@H](Oc2nccc3cc(Nc4n[nH]c5ncccc45)ccc23)CO1` [Compound 88], the IC50 against 2D6 is above 30 µM; against 3A4, above 30 µM; at 1A2, 17 µM; against 2C9 it was above 30 µM. Also, the fraction unbound came to 0.003 in data set [1], 0.032 in data set [4] and 0.01 in [5]. In addition, the CLint scaled in [2] is 18.1 mL/min/kg; in [3], 79.9 mL/min/kg. Also, in data set [2], the “Human CLhep” value is recorded as 9.71 mL/min/kg. Also, in “Kinetic solubility”, the solubility (kinetic) was 0.5 ± 0.2 µM (≈ 0.181 µg/mL). Further, in [3], the “Rat CLhep” value amounted to 37.3 mL/min/kg. Moreover, the Kp in the data set “Brain-plasma partition” amounted to 2.22. In addition, the unbound brain-to-plasma partition coefficient (Kp,uu) in “Brain-plasma partition” was determined as 0.21. Besides, the clearance in the data set “Rat in vivo clearance” came out at 43.3 mL/min/kg.
`c1cnc2c(Nc3ccc4c(O[C@H]5CCOC5)nccc4c3)n[nH]c2c1` [Compound 64]: the IC50 is above 30 µM at 2D6, 27.7 µM against 3A4, 7.99 µM against 1A2 and 10.6 µM against 2C9. Further, the fraction unbound in data set [1] stood at 0.007; in [4] it was 0.042; in [5], 0.02. Moreover, the CLint scaled amounted to 29.1 mL/min/kg in data set [2] and 94.8 mL/min/kg in data set [3]. Besides, the “Human CLhep” value in data set [2] amounted to 12.2 mL/min/kg. Also, the kinetic solubility in the data set “Kinetic solubility” turned out to be 4.9 ± 0.6 µM (≈ 1.7 µg/mL). Further, in data set [3], the “Rat CLhep” value turned out to be 40.3 mL/min/kg. Also, the Kp in the data set “Brain-plasma partition” is 1.22. Besides, in “Brain-plasma partition”, the unbound brain-to-plasma partition coefficient (Kp,uu) worked out at 0.2. Moreover, in “Rat in vivo clearance”, the clearance came to 59.8 mL/min/kg.
In the case of `c1cc2cc(Nc3n[nH]c4nccnc34)ccc2c(OCC2CCOC2)n1` (stereo not drawn) [Compound 85], the IC50 on 2D6, against 3A4, against 1A2 and on 2C9 was above 30 µM each time. The values for the fraction unbound in [1], in data set [4] and in [5] were 0.013, 0.019 and 0.026, respectively. Further, the CLint scaled in data set [2] is 41.2 mL/min/kg; in [3], 95.7 mL/min/kg. The “Human CLhep” value in data set [2] came to 13.9 mL/min/kg. The kinetic solubility in “Kinetic solubility” turned out to be 0.6 ± 0.1 µM (≈ 0.217 µg/mL). The “Rat CLhep” value in data set [3] was 40.4 mL/min/kg. The same molecule displayed a Kp in the data set “Brain-plasma partition” of 0.66. Further, in “Brain-plasma partition”, the unbound brain-to-plasma partition coefficient (Kp,uu) is 0.45. Also, in “Rat in vivo clearance”, the clearance came to 36.9 mL/min/kg.
Regarding `CO[C@H](C)COc1nccc2cc(Nc3n[nH]c4cccnc34)ccc12` [Compound 70], the IC50 against 2D6 was found to be 22.5 µM; against 3A4 it was 11.4 µM; against 1A2 it was 4.96 µM; at 2C9, 6.87 µM. Moreover, the fraction unbound came out at 0.006 in data set [1], 0.032 in [4] and 0.017 in data set [5]. The CLint scaled in data set [2] was 57 mL/min/kg; in [3], 238 mL/min/kg. The “Human CLhep” value in [2] amounted to 15.3 mL/min/kg. Besides, the kinetic solubility in the data set “Kinetic solubility” came to 2.9 ± 0.4 µM (≈ 1.01 µg/mL). The “Rat CLhep” value in data set [3] came out at 54.1 mL/min/kg. Further, in “Brain-plasma partition”, the Kp was found to be 2.56. Further, in “Brain-plasma partition”, the unbound brain-to-plasma partition coefficient (Kp,uu) was found to be 0.48. For the same molecule, the clearance in the data set “Rat in vivo clearance” stood at 74.2 mL/min/kg.
As to `c1cc2cc(Nc3n[nH]c4nccnc34)ccc2c(O[C@@H]2CCOC2)n1` [Compound 58], the IC50 against 2D6, at 3A4, against 1A2 and against 2C9 was above 30 µM throughout. In addition, the fraction unbound in [1] worked out at 0.014; in data set [4], 0.055; in data set [5] it was 0.032. For the same molecule, the CLint scaled came to 32.4 mL/min/kg in data set [2] and 122 mL/min/kg in data set [3]. In [2], the “Human CLhep” value is given as 12.7 mL/min/kg. Moreover, the “Rat CLhep” value in data set [3] came out at 44.4 mL/min/kg. The molecule also came in with a Kp in the data set “Brain-plasma partition” of 1.29. Further, the unbound brain-to-plasma partition coefficient (Kp,uu) in the data set “Brain-plasma partition” is 0.33. Further, in “Rat in vivo clearance”, the clearance turned out to be 116 mL/min/kg.
As to `COCCOc1nccc2cc(Nc3n[nH]c4cccnc34)ccc12` [Compound 67], the IC50 on 2D6 was above 30 µM; against 3A4, 9.45 µM; on 1A2 it was 4.76 µM; at 2C9, 22 µM. The results for the fraction unbound in data set [1], in [4] and in [5] were 0.007, 0.039 and 0.024, respectively. The CLint scaled came to 35.2 mL/min/kg in [2] and 113 mL/min/kg in data set [3]. In data set [2], the “Human CLhep” value is 13.2 mL/min/kg. This molecule also returned a kinetic solubility in the data set “Kinetic solubility” of 5.5 ± 0.5 µM (≈ 1.84 µg/mL). Besides, in data set [3], the “Rat CLhep” value came to 43.2 mL/min/kg. The same molecule yielded a Kp in the data set “Brain-plasma partition” of 1.11. The unbound brain-to-plasma partition coefficient (Kp,uu) in the data set “Brain-plasma partition” is 0.2. Further, the clearance in the data set “Rat in vivo clearance” worked out at 82.2 mL/min/kg.
On to `c1cnc2c(Nc3ccc4c(OCC5COCCO5)nccc4c3)n[nH]c2c1` (stereo not drawn) [Compound 73], for which the IC50 on 2D6 is above 30 µM; against 3A4, 29.5 µM; on 1A2 it was 16.4 µM; at 2C9 it was 15.3 µM. The fraction unbound turned out to be 0.01 in data set [1], 0.039 in data set [4] and 0.038 in [5]. Besides, the values for the CLint scaled in [2] and in data set [3] were 26.5 mL/min/kg and 120 mL/min/kg, respectively. Further, the “Human CLhep” value in [2] is given as 11.5 mL/min/kg. Moreover, in the data set “Kinetic solubility”, the solubility (kinetic) was found to be 2.4 ± 0.5 µM (≈ 0.906 µg/mL). Also, the “Rat CLhep” value in data set [3] is on record as 44.2 mL/min/kg. In the data set “Brain-plasma partition”, this molecule had a concentration ratio (Kp) of 0.57. Besides, the unbound brain-to-plasma partition coefficient (Kp,uu) in the data set “Brain-plasma partition” turned out to be 0.15. The clearance in the data set “Rat in vivo clearance” amounted to 32.7 mL/min/kg.
`c1cc2cc(Nc3n[nH]c4nccnc34)ccc2c(OCC2COCCO2)n1` (stereo not drawn) [Compound 86]: the IC50 on 2D6, against 3A4, against 1A2 and against 2C9 was above 30 µM throughout. In addition, the fraction unbound amounted to 0.018 in data set [1], 0.057 in data set [4] and 0.063 in [5]. Also, the CLint scaled in data set [2] was found to be 19 mL/min/kg; in [3], 58.1 mL/min/kg. Moreover, the “Human CLhep” value in [2] stood at 10.0 mL/min/kg. In the data set “Kinetic solubility”, the solubility (kinetic) is 0.6 ± 0.2 µM (≈ 0.227 µg/mL). Further, the “Rat CLhep” value in data set [3] came out at 31.7 mL/min/kg. In “Brain-plasma partition”, this molecule had a Kp of 0.35. Also, the unbound brain-to-plasma partition coefficient (Kp,uu) in “Brain-plasma partition” is 0.11.
